According to US4507314A, “Drug for treating affections provoked by a too high histamine level, of the gastroduodenal mucosa and allergic affections” (Midit, Societe Fiduciaire, priority 1983, dated 1985):
Like-named read-outs stand apart in the source and are kept apart here.

Experiments:
[1] = system: histamine levels in the fundus, corpus and antrum mucosa; conditions: 4 weeks
Source text: (§1) Photographs of the ulcer and biopsies of the stomach mucosa were taken before and after each week of treatment.

[2] = system: histamine level of the plasma
Source text: as §1

[3] = system: gastric ulcers induced in rats by immobilisation; conditions: intraperitoneal; expressed in terms of dry (+)-catechin; immobilised 12 hours
Description: (a) on ulcers induced by stress caused by immobilization: After one week adaptation to the environment, female rats, (30 animals per group, 5 per cage), were immobilised during 12 hours by wrapping them, under narcosis with ether, in a plaster bandage.
After sacrifice of the animals, the dissected stomach was visually inspected and the lesions of the mucosa were scored according to their number and their intensity.
The products to be tested were administered, immediately before the test, by intraperitoneal injection of 2 ml of a freshly prepared saline solution. The doses tested varied from 0.1 to 50 mg/kg. The controls received 2 ml of saline.

[4] = system: stress induced gastric ulcers; conditions: 30 mg/kg oral, 3 times a day during 3 days; immobilisation 12 hours; control group 38%
Description: The tested product was given 3 times a day during the 3 days preceding the experiment. The last administration was given 1 hour before immobilisation of the rats during 12 hours.

[5] = system: rat peritoneal mastocytes; conditions: 30 mg/kg per os, 3 times a day during 3 days; 0.5 μg/ml compound 48/80, 10 minutes at 37° C.
[6] = molecular target: T1, histidine decarboxylase (Oryctolagus cuniculus, UniProt G1TCH4); assay: inhibition of histidine decarboxylase extracted from rabbit stomach, in vitro; conditions: read-out: IC50, inhibition of histidine decarboxylase, enzyme extracted from rabbit stomach
T1 sequence (G1TCH4 1-661): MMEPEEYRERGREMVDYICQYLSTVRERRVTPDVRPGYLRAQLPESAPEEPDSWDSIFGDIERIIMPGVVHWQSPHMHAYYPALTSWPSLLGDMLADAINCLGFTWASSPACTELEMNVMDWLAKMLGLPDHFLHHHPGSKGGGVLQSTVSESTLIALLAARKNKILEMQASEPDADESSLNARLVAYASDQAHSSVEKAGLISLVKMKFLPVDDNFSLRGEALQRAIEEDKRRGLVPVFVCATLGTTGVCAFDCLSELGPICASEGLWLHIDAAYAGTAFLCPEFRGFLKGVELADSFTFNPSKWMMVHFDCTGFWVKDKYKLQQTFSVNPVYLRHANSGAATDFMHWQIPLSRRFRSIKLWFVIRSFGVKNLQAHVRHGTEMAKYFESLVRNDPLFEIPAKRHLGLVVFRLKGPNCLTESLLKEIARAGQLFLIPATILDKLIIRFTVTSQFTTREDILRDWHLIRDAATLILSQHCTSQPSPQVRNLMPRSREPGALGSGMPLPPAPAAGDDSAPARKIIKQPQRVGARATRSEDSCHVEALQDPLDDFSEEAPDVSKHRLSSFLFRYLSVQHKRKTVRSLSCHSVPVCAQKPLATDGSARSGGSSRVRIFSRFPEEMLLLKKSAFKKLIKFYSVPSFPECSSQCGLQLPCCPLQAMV

[7] = system: histamine level of the mucosa of the fundus, of the corpus and of the antrum; conditions: 3 days, healthy persons
[8] = system: rat peritoneal mastocytes; conditions: 10^-50 M (so in the source); 48/80 stimulated; 37° C., 10 minutes
[9] = system: histamine content in the lungs; conditions: 30 mg/kg intraperitoneal
[10] = system: histamine content in rat stomach mucosa; conditions: 30 mg/kg intraperitoneal
[11] = system: necrosis of the gastric mucosa induced by acetic acid; conditions: 150 mg/kg orally, twice a day during 5 days
Description: In rats fasted for 24 hours, necrosis of the gastric mucosa was induced by intra-gastric administration of acetic acid (1 ml at 20%) one hour before treatment.
Accordingly the rats were sacrified, the stomach mucosa was photographed and the lesions were scored.

[12] = system: intragastric pH; conditions: in vivo
Source text: as §1

[13] = system: human duodenal ulcer; conditions: after 1 month of treatment, 1500 mg daily
Source text: as §1

[14] = system: leucocytes; conditions: preincubation 10 minutes at 37° C., pollen or house dust 30 minutes
Description: Then the histamin level was measured in the leucocyte suspension and the supernatant liquid and compared to the values obtained from the controls.

[15] = system: histamine level in lung tissue; conditions: 30 mg/kg per os, 3 times a day during 3 days; five hours after the last treatment
Description: The drug was administered per os as a suspension in carboxymethyl cellulose (1% in water).

[16] = 1500 mg daily, duodenal ulcer patients

CN/C(=N/CCSCc1nc[nH]c1C)NC#N [cimetidine, reference compound]
effect on the histamine levels in the stomach mucosa ([1]; 800 mg cimetidine daily): no notable effect or induced an increase | increase of the histamine levels in the stomach mucosa ([1]; in some cases, 800 mg cimetidine daily): more than 10% | effect on the histamine levels in the plasma ([2]; 800 mg cimetidine daily, 4 weeks): no notable effect or induced an increase | increase of the histamine levels in the plasma ([2]; in some cases, 800 mg cimetidine daily, 4 weeks): more than 10%

(+)-catechin ascorbolysinate
ED50 in the gastric ulcers induced in rats by immobilisation [3]: 1.5 mg/kg

(+)-catechin hydrochlorolysinate
proportion of rats with severe lesions [4]: 15% | decrease of histamine release of the mastocytes compared to the controls [5]: 22% | IC50 [6]: 100 µM | number of mastocytes ([7]; 500, 1000 or 1500 mg per day per os, same way as the histamine level): decreased in the same way | decrease of the histamine level of the mucosa of the fundus, of the corpus and of the antrum ([7]; highest dose (1500 mg per day), per os, dose dependent): 30% | inhibition of release of histamine from rat peritoneal mastocytes [8]: 27% | decrease of the histamine content in the lungs [9]: 38% | decrease of the histamine content in rat stomach mucosa [10]: 33% | reduction of the number of animals with severe lesions [11]: 50% | decrease of the histamine levels in the fundus, corpus and antrum mucosa [1, 16]: ~20% | decrease of the number of mastocytes in the fundus, corpus and antrum mucosa [1, 16]: ~20% | mean histamine level of the plasma after treatment ([2]; 1500 mg daily, decreased from 0.7 (±0.3) ng/ml, observed after one week, constant during the following 3 weeks): 0.3 (±0.1) ng/ml | effect on the intragastric pH [12]: no effect | ulcer diameter of the other (not fully recovered) patients [13]: decreased significantly | patients fully recovered ([13]; out of 11): 7 patients | release inhibition, leucocytes ([14]; 10^-5 M): 45% | release inhibition, leucocytes ([14]; 10^-6 M): 45% | decrease of the histamine level in the homogenized lung tissue compared to the control group [15]: 38% | ED50 in the gastric ulcers induced in rats by immobilisation [3]: 5 mg/kg
